Source: patent publication US8952024B2, “Herbicidal pyrimidone derivatives” (E I du Pont de Nemours and Company, priority 2009, dated 2015)

Assays:
Assay in all cases: Test B pre-/postemergence plant response
Format in all cases: in vivo
[1] = tested on: bermudagrass (Cynodon dactylon)
Text: (§1) Seeds of plant species selected from blackgrass (Alopecurus myosuroides), downy bromegrass (Bromus tectorum), green foxtail (Setaria viridis), Italian ryegrass (Lolium multiflorum), wheat (Triticum aestivum), wild oat (Avena fatua), deadnettle (henbit deadnettle, Lamium amplexicaule), galium (catchweed bedstraw, Galium aparine), bermudagrass (Cynodon dactylon), Surinam grass (Brachiaria decumbens), cocklebur (Xanthium strumarium), corn (Zea mays), large crabgrass (Digitaria sanguinalis), woolly cupgrass (Eriochloa villosa), giant foxtail (Setaria faberii), goosegrass (Eleusine indica), johnsongrass (Sorghum halepense), kochia (Kochia scoparia), lambsquarters (Chenopodium album), morningglory (Ipomoea coccinea), nightshade (eastern black nightshade, Solanum ptycanthum), yellow nutsedge (Cyperus esculentus), pigweed (Amaranthus retroflexus), ragweed (common ragweed, Ambrosia elatior), Russian thistle (Salsola kali), soybean (Glycine max), sunflower (common oilseed sunflower, Helianthus annuus) and velvetleaf (Abutilon theophrasti) were planted into a blend of loam soil and sand and treated preemergence with test compounds formulated in a non-phytotoxic solvent mixture which included a surfactant.
(§2) At the same time, plants selected from these crop and weed species and also winter barley (Hordeum vulgare), canarygrass (Phalaris minor), chickweed (Stellaria media) and windgrass (Apera spica-venti) were planted in pots containing Redi-Earth® planting medium (Scotts Company, 14111 Scottslawn Road, Marysville, Ohio 43041) comprising spaghnum peat moss, vermiculite, wetting agent and starter nutrients and treated with postemergence applications of some of the test chemicals formulated in the same manner. Plants ranged in height from 2 to 18 cm (1- to 4-leaf stage) for postemergence treatments.
(§3) Treated plants and controls were maintained in a greenhouse for 13 to 15 days, after which time all treated plants were visually evaluated and compared to controls. Plant response ratings, summarized in Table B, are based on a scale of 0 to 100 where 0 is no effect and 100 is complete control. A dash (-) response means no test result.

[2] = tested on: woolly cupgrass (Eriochloa villosa)
Text: as §1, §2, §3

[3] = tested on: yellow nutsedge (Cyperus esculentus)
Text: as §1, §2, §3

[4] = tested on: morningglory (Ipomoea coccinea)
Text: as §1, §2, §3

[5] = tested on: downy bromegrass (Bromus tectorum)
Text: as §1, §2, §3

[6] = tested on: velvetleaf (Abutilon theophrasti)
Text: as §1, §2, §3

kochia (Kochia scoparia) = tested on: kochia (Kochia scoparia)
Text: as §1, §2, §3

[7] = tested on: Italian ryegrass (Lolium multiflorum)
Text: as §1, §2, §3

soybean (Glycine max) = tested on: soybean (Glycine max)
Text: as §1, §2, §3

[8] = tested on: large crabgrass (Digitaria sanguinalis)
Text: as §1, §2, §3

[9] = tested on: cocklebur (Xanthium strumarium)
Text: as §1, §2, §3

[10] = tested on: wheat (Triticum aestivum)
Text: as §1, §2, §3

[11] = 250 g ai/ha, Preemergence, 0 to 100 scale
[12] = Postemergence, 31 g ai/ha, scale 0 to 100 (0 no effect, 100 complete control)
[13] = Postemergence, 62 g ai/ha, scale 0 (no effect) to 100 (complete control), 13 to 15 days
[14] = Postemergence, 125 g ai/ha, scale 0 to 100 (0 no effect, 100 complete control), 13 to 15 days
[15] = Postemergence, 250 g ai/ha, scale 0 to 100
[16] = Preemergence, 31 g ai/ha, scale 0 to 100 (0 no effect, 100 complete control)
[17] = Preemergence, 62 g ai/ha, scale 0 to 100 (0 no effect, 100 complete control)
[18] = Preemergence, 125 g ai/ha, 0 to 100 scale
[19] = Postemergence, 125 g ai/ha, visual rating after 13 to 15 days, scale 0 (no effect) to 100 (complete control)
[20] = Preemergence, 0 is no effect, 100 is complete control, rated after 13 to 15 days, application rate of this section not shown

3-cyclohexyl-5-[(2-hydroxy-6-oxo-1-cyclohexen-1-yl)carbonyl]-2-phenyl-4(3H)-pyrimidinone [Compound 128]
Plant response rating, Bermudagrass [1, 11]: 100
Plant response rating, Bermudagrass [1, 12]: 80
Plant response rating, Bermudagrass [1, 13]: 100
Plant response rating, Bermudagrass [1, 14]: 100
Bermudagrass plant response rating [1, 15]: 100
Plant response rating, Bermudagrass [1, 16]: 98
Plant response rating, Bermudagrass [1, 17]: 100
Bermudagrass plant response rating [1, 18]: 100
Plant response rating, Cupgrass, Woolly [2, 11]: 75
Plant response rating, Cupgrass, Woolly [2, 12]: 55
Plant response rating, Cupgrass, Woolly [2, 13]: 75
Plant response rating, Cupgrass, Woolly [2, 19]: 90
Cupgrass, Woolly plant response rating [2, 15]: 95
Plant response rating, Cupgrass, Woolly [2, 16]: 0
Plant response rating, Cupgrass, Woolly [2, 17]: 0
Cupgrass, Woolly plant response rating [2, 18]: 15
Plant response rating, Nutsedge, Yellow [3, 11]: 90
Plant response rating, Nutsedge, Yellow [3, 12]: 25
Plant response rating, Nutsedge, Yellow [3, 13]: 35
Plant response rating, Nutsedge, Yellow [3, 19]: 50
Nutsedge, Yellow plant response rating [3, 15]: 60
Plant response rating, Nutsedge, Yellow [3, 16]: 0
Plant response rating, Nutsedge, Yellow [3, 17]: 55
Nutsedge, Yellow plant response rating [3, 18]: 85
Plant response rating, Morningglory [4, 11]: 100
Plant response rating, Morningglory [4, 12]: 15
Plant response rating, Morningglory [4, 13]: 15
Plant response rating, Morningglory [4, 19]: 70
Morningglory plant response rating [4, 15]: 80
Plant response rating, Morningglory [4, 16]: 0
Plant response rating, Morningglory [4, 17]: 0
Morningglory plant response rating [4, 18]: 35
Plant response rating, Bromegrass, Downy [5, 11]: 5
Plant response rating, Bromegrass, Downy [5, 12]: 20
Plant response rating, Bromegrass, Downy [5, 13]: 35
Plant response rating, Bromegrass, Downy [5, 19]: 45
Bromegrass, Downy plant response rating [5, 15]: 45
Plant response rating, Bromegrass, Downy [5, 16]: 0
Plant response rating, Bromegrass, Downy [5, 17]: 0
Bromegrass, Downy plant response rating [5, 18]: 0
Plant response rating, Velvetleaf [6, 11]: 100
Plant response rating, Velvetleaf [6, 12]: 80
Plant response rating, Velvetleaf [6, 13]: 95
Plant response rating, Velvetleaf [6, 19]: 100
Velvetleaf plant response rating [6, 15]: 100
Plant response rating, Velvetleaf [6, 16]: 100
Plant response rating, Velvetleaf [6, 17]: 100
Velvetleaf plant response rating [6, 18]: 100
Plant response rating, Kochia (kochia (Kochia scoparia); [11]): 100
Plant response rating, Kochia (kochia (Kochia scoparia); [12]): 25
Plant response rating, Kochia (kochia (Kochia scoparia); [13]): 25
Plant response rating, Kochia (kochia (Kochia scoparia); [19]): 75
Kochia plant response rating (kochia (Kochia scoparia); [15]): 98
Plant response rating, Kochia (kochia (Kochia scoparia); [16]): 15
Plant response rating, Kochia (kochia (Kochia scoparia); [17]): 100
Kochia plant response rating (kochia (Kochia scoparia); [18]): 100
Plant response rating, Ryegrass, Italian [7, 11]: 0
Plant response rating, Ryegrass, Italian [7, 12]: 10
Plant response rating, Ryegrass, Italian [7, 13]: 10
Plant response rating, Ryegrass, Italian [7, 19]: 40
Ryegrass, Italian plant response rating [7, 15]: 40
Plant response rating, Ryegrass, Italian [7, 16]: 0
Plant response rating, Ryegrass, Italian [7, 17]: 0
Ryegrass, Italian plant response rating [7, 18]: 0
Plant response rating, Soybean (soybean (Glycine max); [11]): 95
Plant response rating, Soybean (soybean (Glycine max); [12]): 100
Plant response rating, Soybean (soybean (Glycine max); [13]): 100
Plant response rating, Soybean (soybean (Glycine max); [19]): 100
Soybean plant response rating (soybean (Glycine max); [15]): 100
Plant response rating, Soybean (soybean (Glycine max); [16]): 25
Plant response rating, Soybean (soybean (Glycine max); [17]): 45
Soybean plant response rating (soybean (Glycine max); [18]): 65
Plant response rating, Crabgrass, Large [8, 11]: 100
Plant response rating, Crabgrass, Large [8, 12]: 80
Plant response rating, Crabgrass, Large [8, 13]: 85
Plant response rating, Crabgrass, Large [8, 19]: 100
Crabgrass, Large plant response rating [8, 15]: 100
Plant response rating, Crabgrass, Large [8, 16]: 60
Plant response rating, Crabgrass, Large [8, 17]: 100
Crabgrass, Large plant response rating [8, 18]: 100
Plant response rating, Cocklebur [9, 11]: 100
Plant response rating, Cocklebur [9, 12]: 90
Plant response rating, Cocklebur [9, 13]: 100
Plant response rating, Cocklebur [9, 19]: 100
Cocklebur plant response rating [9, 15]: 100
Plant response rating, Cocklebur [9, 16]: 35
Plant response rating, Cocklebur [9, 17]: 75
Cocklebur plant response rating [9, 18]: 95
Plant response rating, Wheat [10, 11]: 5
Plant response rating, Wheat [10, 12]: 30
Plant response rating, Wheat [10, 13]: 35
Plant response rating, Wheat [10, 19]: 40
Wheat plant response rating [10, 15]: 45
Plant response rating, Wheat [10, 16]: 0
Plant response rating, Wheat [10, 17]: 0
Wheat plant response rating [10, 18]: 0

5-[(2-hydroxy-6-oxo-1-cyclohexen-1-yl)carbonyl]-2,3-diphenyl-4(3H)-pyrimidinone [Compound 2]
Plant response rating, Bermudagrass [1, 12]: 40
Plant response rating, Bermudagrass [1, 13]: 50
Plant response rating, Bermudagrass [1, 14]: 60
Bermudagrass plant response rating [1, 15]: 65
Plant response rating, Cupgrass, Woolly [2, 12]: 0
Plant response rating, Cupgrass, Woolly [2, 13]: 0
Plant response rating, Cupgrass, Woolly [2, 19]: 0
Cupgrass, Woolly plant response rating [2, 15]: 20
Plant response rating, Nutsedge, Yellow [3, 12]: 15
Plant response rating, Nutsedge, Yellow [3, 13]: 20
Plant response rating, Nutsedge, Yellow [3, 19]: 20
Nutsedge, Yellow plant response rating [3, 15]: 45
Plant response rating, Morningglory [4, 12]: 0
Plant response rating, Morningglory [4, 13]: 20
Plant response rating, Morningglory [4, 19]: 45
Morningglory plant response rating [4, 15]: 65
Plant response rating, Bromegrass, Downy [5, 12]: 0
Plant response rating, Bromegrass, Downy [5, 13]: 0
Plant response rating, Bromegrass, Downy [5, 19]: 0
Bromegrass, Downy plant response rating [5, 15]: 10
Plant response rating, Velvetleaf [6, 12]: 55
Plant response rating, Velvetleaf [6, 13]: 75
Plant response rating, Velvetleaf [6, 19]: 85
Velvetleaf plant response rating [6, 15]: 90
Velvetleaf plant response rating (0 to 100 scale) [6, 20]: 0
Plant response rating, Kochia (kochia (Kochia scoparia); [12]): 15
Plant response rating, Kochia (kochia (Kochia scoparia); [13]): 20
Plant response rating, Kochia (kochia (Kochia scoparia); [19]): 25
Kochia plant response rating (kochia (Kochia scoparia); [15]): 45
Plant response rating, Ryegrass, Italian [7, 12]: 0
Plant response rating, Ryegrass, Italian [7, 13]: 0
Plant response rating, Ryegrass, Italian [7, 19]: 0
Ryegrass, Italian plant response rating [7, 15]: 0
Ryegrass, Italian plant response rating (0 to 100 scale) [7, 20]: 0
Plant response rating, Soybean (soybean (Glycine max); [12]): 50
Plant response rating, Soybean (soybean (Glycine max); [13]): 65
Plant response rating, Soybean (soybean (Glycine max); [19]): 70
Soybean plant response rating (soybean (Glycine max); [15]): 80
Soybean plant response rating (0 to 100 scale) (soybean (Glycine max); [20]): 0
Plant response rating, Crabgrass, Large [8, 12]: 40
Plant response rating, Crabgrass, Large [8, 13]: 50
Plant response rating, Crabgrass, Large [8, 19]: 55
Crabgrass, Large plant response rating [8, 15]: 65
Plant response rating, Cocklebur [9, 12]: 65
Plant response rating, Cocklebur [9, 13]: 65
Plant response rating, Cocklebur [9, 19]: 70
Cocklebur plant response rating [9, 15]: 85
Plant response rating, Wheat [10, 12]: 0
Plant response rating, Wheat [10, 13]: 0
Plant response rating, Wheat [10, 19]: 0
Wheat plant response rating [10, 15]: 5
Wheat plant response rating (0 to 100 scale) [10, 20]: 0
